Reference: patent publication US10662156B2, “Guanidine derivative and medical use thereof” (Toray Industries, Inc., priority 2016, dated 2020)
Where a name gives a salt, the structure may show the parent alone.

Biological target: recombinant GST fusion MALT1 (human MALT1) (Homo sapiens (Human), UniProt Q9UDY8)
Experiment: Evaluation of inhibition of protease activity of MALT1 (cleavage of fluorescent peptide substrate Ac-LRSR-AMC)
Format: biochemical
Conditions: substrate Ac-LRSR-AMC 20 μmol/L, 30° C. for 80 minutes
Procedure, shortened: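 GST-tagged full-length human MALT1 from E. coli ([…]) was preincubated with compound 30 min at room temperature. Buffer: MES, 150 mM NaCl, 10% sucrose, 0.1% CHAPS, 10 mM DTT, 1 mol/L ammonium citrate. Ac-LRSR-AMC (20 μM final) was then cleaved 80 min at 30 °C; AMC fluorescence (Ex 380/Em 460) gain gave % inhibition versus no-enzyme and DMSO controls.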

recombinant GST fusion MALT1 (human MALT1), sequence (Q9UDY8 whole entry, the tested form may be a part): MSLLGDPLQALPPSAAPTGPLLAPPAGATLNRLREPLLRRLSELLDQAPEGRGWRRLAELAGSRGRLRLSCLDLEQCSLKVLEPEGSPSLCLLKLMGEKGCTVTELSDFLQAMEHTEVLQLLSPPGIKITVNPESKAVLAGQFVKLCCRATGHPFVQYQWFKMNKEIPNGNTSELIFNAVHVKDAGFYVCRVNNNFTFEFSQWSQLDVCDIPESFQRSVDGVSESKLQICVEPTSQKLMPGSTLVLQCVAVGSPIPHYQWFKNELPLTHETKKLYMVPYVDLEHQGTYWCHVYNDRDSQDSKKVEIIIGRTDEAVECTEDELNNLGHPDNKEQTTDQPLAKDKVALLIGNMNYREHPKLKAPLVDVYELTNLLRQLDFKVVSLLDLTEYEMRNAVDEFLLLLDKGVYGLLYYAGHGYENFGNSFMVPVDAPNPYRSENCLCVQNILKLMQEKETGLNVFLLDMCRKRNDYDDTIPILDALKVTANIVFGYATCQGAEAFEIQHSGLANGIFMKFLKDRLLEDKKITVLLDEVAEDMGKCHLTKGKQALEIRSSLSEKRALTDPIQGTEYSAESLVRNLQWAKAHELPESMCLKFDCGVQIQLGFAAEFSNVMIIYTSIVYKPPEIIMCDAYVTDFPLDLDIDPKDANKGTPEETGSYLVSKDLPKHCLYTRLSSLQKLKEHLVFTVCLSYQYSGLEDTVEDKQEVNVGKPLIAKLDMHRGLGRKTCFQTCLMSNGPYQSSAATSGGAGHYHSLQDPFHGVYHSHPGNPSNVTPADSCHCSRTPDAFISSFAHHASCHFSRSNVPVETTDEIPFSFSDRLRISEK

Compound | IC50
N/C(=N\C(=O)c1cscn1)NCc1cnc(-c2ccc(Cl)cc2)c(-c2ccc(Cl)cc2)c1 [Compound of Example 83, N-(amino(((5,6-bis(4-chlorophenyl)pyridin-3-yl)methyl)amino)methylene)thiazole-4-carboxamide] | 0.942 µM
N/C(=N\C(=O)CC(F)(F)F)NCc1cnc(-c2ccc(Cl)cc2)c(-c2ccc(Cl)cc2)c1 [Compound of Example 84, N-(amino(((5,6-bis(4-chlorophenyl)pyridin-3-yl)methyl)amino)methylene)-3,3,3-trifluoropropanamide] | 1.38 µM
N/C(=N\S(=O)(=O)c1ccccc1)NCc1cnc(-c2ccccc2)c(-c2ccc(C(F)(F)F)cc2)c1 [Compound of Example 92, N-(amino(((6-phenyl-5-(4-(trifluoromethyl)phenyl)pyridin-3-yl)methyl)amino)methylene)benzenesulfonamide] | 1.04 µM
N/C(=N\S(=O)(=O)c1ccccc1)NCc1cnc(-c2ccc(C(F)(F)F)cc2)c(-c2ccccc2)c1 [Compound of Example 93, N-(amino(((5-phenyl-6-(4-(trifluoromethyl)phenyl)pyridin-3-yl)methyl)amino)methylene)benzenesulfonamide] | 1.07 µM
N/C(=N\S(=O)(=O)c1ccccc1)NCc1cnc(-c2ccc(Cl)cc2)c(-c2ccc(O)cc2)c1 [Compound of Example 94, N-(amino(((6-(4-chlorophenyl)-5-(4-hydroxyphenyl)pyridin-3-yl)methyl)amino)methylene)benzenesulfonamide Hydrochloride] | 1.61 µM
N/C(=N\S(=O)(=O)c1ccccc1)NCc1cnc(-c2ccc(O)cc2)c(-c2ccc(Cl)cc2)c1 [Compound of Example 95, N-(amino(((5-(4-chlorophenyl)-6-(4-hydroxyphenyl)pyridin-3-yl)methyl)amino)methylene)benzenesulfonamide Hydrochloride] | 1.03 µM
N/C(=N\S(=O)(=O)c1cccc(O)c1)NCc1cnc(-c2ccc(Cl)cc2)c(-c2ccc(Cl)cc2)c1 [Compound of Example 96, N-(amino(((5,6-bis(4-chlorophenyl)pyridin-3-yl)methyl)amino)methylene)-3-hydroxybenzenesulfonamide Hydrochloride] | 2.14 µM
N/C(=N\S(=O)(=O)c1ccccc1)NCc1cnc(-c2ccc(Cl)cc2O)c(-c2ccc(Cl)cc2)c1 [Compound of Example 97, N-(amino(((6-(4-chloro-2-hydroxyphenyl)-5-(4-chlorophenyl)pyridin-3-yl)methyl)amino)methylene)benzenesulfonamide] | 0.922 µM

Stronger by IC50, values ahead:

IC50 | Compound
0.373 µM | N/C(=N\C(=O)C1CCC(F)(F)CC1)NCc1cnc(-c2ccc(Cl)cc2)c(-c2ccc(Cl)cc2)c1 [Compound of Example 85, N-(amino(((5,6-bis(4-chlorophenyl)pyridin-3-yl)methyl)amino)methylene)-4,4-difluorocyclohexanecarboxamide]
0.88 µM | CC(C)(C(=O)/N=C(\N)NCc1cnc(-c2ccc(Cl)cc2)c(-c2ccc(Cl)cc2)c1)c1ccccc1 [Compound of Example 86, N-(amino(((5,6-bis(4-chlorophenyl)pyridin-3-yl)methyl)amino)methylene)-2-methyl-2-phenylpropanamide]
0.072 µM | N/C(=N\S(=O)(=O)c1ccccc1)NCc1ncc(-c2ccc(Cl)cc2)c(-c2ccc(Cl)cc2)n1 [Compound of Example 87, N-(amino(((4,5-bis(4-chlorophenyl)pyrimidin-2-yl)methyl)amino)methylene)benzenesulfonamide]
0.104 µM | COc1nc(-c2ccc(Cl)cc2)c(-c2ccc(Cl)cc2)cc1CN/C(N)=N/S(=O)(=O)c1ccccc1 [Compound of Example 88, N-(amino(((5,6-bis(4-chlorophenyl)-2-methoxypyridin-3-yl)methyl)amino)methylene)benzenesulfonamide]
0.368 µM | N/C(=N\S(=O)(=O)c1ccccc1)NCc1cc(-c2ccc(Cl)cc2)c(-c2ccc(Cl)cc2)nc1F [Compound of Example 89, N-(amino(((5,6-bis(4-chlorophenyl)-2-fluoropyridin-3-yl)methyl)amino)methylene)benzenesulfonamide]
0.234 µM | Cc1nc(-c2ccc(Cl)cc2)c(-c2ccc(Cl)cc2)cc1CN/C(N)=N/S(=O)(=O)c1ccccc1 [Compound of Example 90, N-(amino(((5,6-bis(4-chlorophenyl)-2-methylpyridin-3-yl)methyl)amino)methylene)benzenesulfonamide]
0.112 µM | N/C(=N\S(=O)(=O)c1ccccc1)NCc1cc(-c2ccc(Cl)cc2)c(-c2ccc(Cl)cc2)nc1O [Compound of Example 91, N-(amino(((5,6-bis(4-chlorophenyl)-2-hydroxypyridin-3-yl)methyl)amino)methylene)benzenesulfonamide]
